Data as given in US6573045B1, “Methods and kits for discovery of RNA-binding compounds” (Ribotargets, Ltd., priority 1998, dated 2003).
Like-named read-outs stand apart in the source and are kept apart here.

Assays:
RRE RNA = experiment: Dabcyl-peptide binding to Fam-labelled RNA (quenching), RRE; design: species or system HIV; conditions: for Kd: RRE, 110 mM KCl
Text: (§1) A representative subset comprising 40 peptide sequences from the total of 243 possible sequences was synthesised and is shown in Table 6. The peptides from the library are: No. 3 (SEQ ID NO:11), 4 (SEQ ID NO:12), 5 (SEQ ID NO:13), 6 (SEQ ID NO:14), 7 (SEQ ID NO:15), 8 (SEQ ID NO:16), 9 (SEQ ID NO:17), 10 (SEQ ID NO:18), 11 (SEQ ID NO:19), 12 (SEQ ID NO:20), 13 (SEQ ID NO:21), 14 (SEQ ID NO:22), 15 (SEQ ID NO:23), 16 (SEQ ID NO:24), 17 (SEQ ID NO:25), 18 (SEQ ID NO:26), 19 (SEQ ID NO:27), 20 (SEQ ID NO:28), 21 (SEQ ID NO:29), 22 (SEQ ID NO:30), 23 (SEQ ID NO:31), 24 (SEQ ID NO:32), 25 (SEQ ID NO:33), 26 (SEQ ID NO:34), 27 (SEQ ID NO:35), 28 (SEQ ID NO:36), 29 (SEQ ID NO:37), 30 (SEQ ID NO:38), 31 (SEQ ID NO:39), 32 (SEQ ID NO:40), 33 (SEQ ID NO:41), 34 (SEQ ID NO:42), 35 (SEQ ID NO:43), 36 (SEQ ID NO:44), 37 (SEQ ID NO:45), 38 (SEQ ID NO:46), 39 (SEQ ID NO:47), 40 (SEQ ID NO:48), 41 (SEQ ID NO:49), 42 (SEQ ID NO:50). These peptides were assayed for their ability to bind to range of RNA sequences carrying fluorescein attached to the 5′ end, as shown in FIG. 25.
(§2) FIG. 26. presents binding data for the peptide sequence 5 (KKQKR) (SEQ ID NO: 13) and the 4 RNA sequences. Reactions (100 μl) containing Fam-labelled RNA (10 nM) were mixed with increasing concentrations of Dabcyl-labelled ADP-1 peptide (up to 250 nM) in 50 mM Tris/Cl, pH7.4, 20 mM or 110 mM KCl (as indicated), 5 μg/ml BSA, 0.01% Triton X-100, 1% DMSO. Fluorescence (excitation 490 nm/emission at 535 nm) was determined using a Victor plate reader.
(§3) Dissociation constants were determined by fitting a binding isotherm (1-site-binding) to the data using the equation:
(§4) Y=((Fmax−Fmin)−((Fmax−Fmin)*X/(Kd+X)))+Fmin
(§5) where Fmax is fluorescence in the absence of quencher, Fmin is fluorescence at saturation, and X is peptide concentration.

ss-19mer RNA = experiment: Dabcyl-peptide binding to Fam-labelled RNA (quenching), single stranded RNA; conditions: for Kd: ss-19mer, 110 mM KCl
Text: as §1, §2, §3, §4, §5

GTPase-LHL RNA = experiment: Dabcyl-peptide binding to Fam-labelled RNA (quenching), GTPase LHL; conditions: for Kd: GTPase-LHL, 110 mM KCl; for binding to the GTPase RNA: FIG. 27
Text: as §1, §2, §3, §4, §5

TAR bulge RNA = experiment: Dabcyl-peptide binding to Fam-labelled RNA (quenching), TAR; design: species or system HIV; conditions: 110 mM KCl
Text: as §1, §2, §3, §4, §5

TAR RNA = experiment: Competition binding assay, FAM-labelled TAR RNA Duplex-1 / TAMRA-labelled ADP-1; design: species or system HIV; conditions: for Ki: 2 nM FAM-labelled TAR RNA, 18 nM unlabelled TAR RNA; for binding to TAR RNA (competitor efficiency): FIG. 8 and FIG. 9
Method: This experiment was performed with a starting condition in which there is an equimolar ratio of TAMRA-labelled ADP-1 peptide and TAR RNA (both labelled and unlabelled). A pre-mix is prepared on ice containing 2 nM FAM-labelled TAR RNA, 18 nM unlabelled TAR RNA and 20 nM TAMRA-labelled ADP-1 peptide diluted in TK buffer to provide the final concentrations (as detailed above) in each 200 μl reaction volume. The ADP-1 peptide was prepared as a 2 fold dilution series in TK buffer at 10 times the assay concentration and diluted 10 fold into the final assay volume. The competition assays were equilibrated for 15 minutes at room temperature and the fluorescence-emission spectra at 535 nm determined in a Wallac Victor™ 1420 following excitation at 485 nm.
Under these conditions, the Ki for the unlabelled ADP-1 competitor was measured as 100 nM.
TAMRA-labelled ADP-1 peptide and increasing concentrations of C5 cyclic peptide (SEQ ID 9). A pre-mix is prepared on ice containing the FAM-labelled TAR RNA, unlabelled TAR RNA and the TAMRA-labelled ADP-1 peptide diluted in TK buffer to provide the final concentrations (as detailed above) in each 200 μl reaction volume. The C5 cyclic peptide was prepared as a 2 fold dilution series in TK buffer at 10 times the assay concentration and diluted 10 fold in to the final assay volume.

FAM-labelled TAR RNA = experiment: Quenching of FAM-labelled TAR RNA by unlabelled ADP-1 peptide; assay type: binding, HIV; conditions: 2 nM FAM-TAR
Method: The FAM-TAR was diluted from a 100 nM stock solution in TK buffer (50 mM Tris-HCl pH7.6, 20 mM KCl) to obtain a final assay concentration of 2 nM in 200 μl reaction volume. The unlabelled ADP-1 peptide was prepared in TK buffer as a 2 fold dilution series at 10 times the assay concentration and diluted 10 fold into the final assay volume (200 μl). After complex formation was performed for 20 minutes at room temperature the fluorescence-emission at 535 nm was determined in a Wallac Victor™ 1420 following excitation at 485 nm.
The level of fluorescence obtained in the absence of the unlabelled ADP-1 peptide is normalised to 100% and the levels of fluorescence obtained in the presence of the unlabelled ADP-1 peptide are expressed as a percentage of this value.

TAR RNA Duplex-2 = experiment: Competition binding assay, FAM-labelled TAR RNA Duplex-2 / TAMRA-labelled ADP-1; design: species or system HIV; conditions: saturating concentrations of ADP-1 competitor
Text: In order to obtain efficient fluorescent resonance energy transfer and/or quenching it is important that the fluorescent groups are placed on the reporter and the target RNA to permit close contact between the donor and acceptors after complex formation. In this experiment the FAM group on the TAR RNA target (Duplex 2) has been displaced by the addition of a base pair. This alteration to the target RNA structure has the effect of increasing the distance of the FAM group from the binding site on the TAR RNA duplex by 2 Å more than the equivalent group on the TAR RNA Duplex 1 target. In addition, insertion of the base pair rotates the FAM group by 18° compared to the equivalent group in the Duplex-1 TAR RNA target.
Because Duplex-2 has a sub-optimal spacing of the FAM-label on TAR RNA it gives rise to a poor signal in the assay compared to Duplex-1, with a less than 50% rise in fluorescence in the presence of saturating concentrations of ADP-1 competitor.

[1] = target: FAM-labelled TAR RNA duplex 1; experiment: Quenching of FAM-labelled TAR RNA by TAMRA-labelled ADP-1 (complex formation); assay type: binding, HIV
Method: In this experiment, 2 nM FAM-labelled TAR RNA was mixed with increasing concentrations of TAMRA-labelled ADP-1 peptide. The FAM-TAR was diluted from a 100 nM stock solution in TK buffer (50 mM Tris-HCl pH 7.6, 20 mM KCl) to obtain a final assay concentration of 2 nM in 200 μl reaction volume. The TAMRA-labelled ADP-1 peptide was prepared in TK buffer as a 2-fold dilution series at 10 times the assay concentration and diluted 10 fold in to the final assay volume (200 μl). Complex formation was performed for 20 minutes at room temperature and the fluorescence-emission spectra at 535 nm determined in a Wallac Victor™ 1420 following excitation at 485 nm.
The level of fluorescence obtained in the absence of TAMRA-labelled ADP-1 peptide gave a fluorescence intensity of 2100 units. As the ADP-1 concentration is increased there is a progressive loss of fluorescence intensity detected, until at concentrations of ADP-1 greater than 100 nM there is over 80% loss of fluorescence intensity and there is no further quenching detected.

[2] = 20 nM TAMRA-labelled ADP-1, 0-100 μM cyclic peptide, average ± SD of three, read-out: Ki

“library peptide Dabcyl-Thr-Arg-Lys-X-X-X-X-X-Arg-Lys-Ser-Gly with X5 = KKKKK” was tested, and the Kd (RRE RNA) was 0.012 µM, the Kd (ss-19mer RNA) was greater than 0.5 µM and the Kd (GTPase-LHL RNA) was 0.026 µM. The Kd (TAR bulge RNA) was 0.024 µM.

With “library peptide Dabcyl-Thr-Arg-Lys-X-X-X-X-X-Arg-Lys-Ser-Gly with X5 = KQRQR” the Kd (TAR bulge RNA) was 0.009 µM.

For “c(KRRFR) [C5] (cyclo(KRRFR); also: D-residues marked by underlining, not recoverable) [cyclic pentapeptide]”, the Ki (TAR RNA; [2]) was 1.87 ± 0.42 µM and the “binding to TAR RNA (competitor efficiency)” value (TAR RNA) was “most efficient competitors”.

For “library peptide Dabcyl-Thr-Arg-Lys-X-X-X-X-X-Arg-Lys-Ser-Gly with X5 = KKQRR”, the Kd (RRE RNA) was 0.02 µM, the Kd (ss-19mer RNA) was greater than 0.5 µM and the Kd (GTPase-LHL RNA) was 0.055 µM.

For “ADP-1: unlabelled peptide derived from HIV Tat, residues 37 to 72 (SEQ ID NO: 7) (FTTKALGISYGRKKRRQRRRPPQGSGTHQVSLSKQ; Human immunodeficiency virus)”, the “quenching of the FAM group present on TAR RNA” value (FAM-labelled TAR RNA) was no more than 20%, the rise in fluorescence (TAR RNA Duplex-2) was “less than 50%” and the Ki (TAR RNA; 20 nM TAMRA-labelled ADP-1, read-out: Ki for the unlabelled ADP-1 competitor) was 0.1 µM.

For cyclo(KRRFR) [C5/1], the Ki (TAR RNA; [2]) was 15.3 ± 2.5 µM.

Work on “library peptide Dabcyl-Thr-Arg-Lys-X-X-X-X-X-Arg-Lys-Ser-Gly with X5 = KKKQR” yielded a Kd (RRE RNA) of 0.03 µM, a Kd (ss-19mer RNA) greater than 0.5 µM and a Kd (GTPase-LHL RNA) of 0.076 µM. It also gave a Kd (TAR bulge RNA) of 0.027 µM.

“library peptide Dabcyl-Thr-Arg-Lys-X-X-X-X-X-Arg-Lys-Ser-Gly with X5 = KQKKR” was tested, and the Kd (TAR bulge RNA) was 0.016 µM.

“library peptide Dabcyl-Thr-Arg-Lys-X-X-X-X-X-Arg-Lys-Ser-Gly with X5 = QQQQQ” was tested, and the Kd (ss-19mer RNA) was greater than 0.5 µM, the “binding to the GTPase RNA” value (GTPase-LHL RNA) was “no significant binding” and the Kd (GTPase-LHL RNA) was greater than 0.5 µM.

In the case of cyclo(KRRFR) [C5/4], the Ki (TAR RNA; [2]) is reported as 8.28 ± 3.01 µM and the “binding to TAR RNA (competitor efficiency)” value (TAR RNA) is reported as “most efficient competitors”.

Substance “library peptide Dabcyl-Thr-Arg-Lys-X-X-X-X-X-Arg-Lys-Ser-Gly with X5 = KQKRR” has a Kd (TAR bulge RNA) of 0.011 µM.

In the case of “library peptide Dabcyl-Thr-Arg-Lys-X-X-X-X-X-Arg-Lys-Ser-Gly with X5 = QQQKR”, the Kd (TAR bulge RNA) is reported as greater than 0.5 µM.

“TAMRA-Phe-Thr-Thr-Lys-Ala-Leu-Gly-Ile-Ser-Tyr-Gly-Arg-Lys-Lys-Arg-Arg-G ln-Arg-Arg-Arg-Pro-Pro-Gln-Gly-Ser-Gln-Thr-His-Gln-Val-Ser-Leu-Ser-Lys-Gln [TAMRA-labelled ADP-1]” was tested, and the Kd ([1]; 2 nM FAM-labelled TAR RNA, TK buffer, read-out: binding constant (Kd) of TAMRA-labelled ADP-1 for FAM-labelled TAR RNA duplex 1) was roughly 0.025 µM and the “loss of fluorescence intensity” value ([1]; concentrations of ADP-1 greater than 100 nM) was “over 80%”.

For “library peptide Dabcyl-Thr-Arg-Lys-X-X-X-X-X-Arg-Lys-Ser-Gly with X5 = KKQKR”, the “binding of the peptide, measured by quenching of the fluorescenated RNA” value (RRE RNA; RRE sequence compared with the other RNAs, FIG. 26) was “highest affinity binding”, the Kd (RRE RNA) was 0.015 µM and the “binding of the peptide, measured by quenching of the fluorescenated RNA” value (ss-19mer RNA; single stranded RNA, FIG. 26) was “no significant binding”. For the same substance, the Kd (ss-19mer RNA) was greater than 0.5 µM, the Kd (GTPase-LHL RNA) was 0.074 µM and the Kd (TAR bulge RNA) was 0.056 µM.

With “library peptide Dabcyl-Thr-Arg-Lys-X-X-X-X-X-Arg-Lys-Ser-Gly with X5 = KKRQR” the Kd (RRE RNA) was 0.024 µM, the Kd (ss-19mer RNA) was greater than 0.5 µM and the Kd (GTPase-LHL RNA) was 0.043 µM.

In the case of “library peptide Dabcyl-Thr-Arg-Lys-X-X-X-X-X-Arg-Lys-Ser-Gly with X5 = RRRRR”, the Kd (RRE RNA) is reported as 0.03 µM, the Kd (ss-19mer RNA) is reported as 0.194 µM and the “binding to the GTPase RNA” value (GTPase-LHL RNA) is reported as “Efficient binding”. For the same substance, the Kd (GTPase-LHL RNA) was 0.016 µM.

With “library peptide Dabcyl-Thr-Arg-Lys-X-X-X-X-X-Arg-Lys-Ser-Gly with X5 = QQQRR” the Kd (TAR bulge RNA) was greater than 0.5 µM.

With cyclo(KRRFR) [C5/5] the Ki (TAR RNA; [2]) was 17.1 ± 13 µM.

With “library peptide Dabcyl-Thr-Arg-Lys-X-X-X-X-X-Arg-Lys-Ser-Gly with X5 = KQQQR” the Kd (TAR bulge RNA) was greater than 0.5 µM.

“library peptide Dabcyl-Thr-Arg-Lys-X-X-X-X-X-Arg-Lys-Ser-Gly with X5 = RQQQR” was tested, and the Kd (TAR bulge RNA) was greater than 0.5 µM.

In the case of cyclo(KRRFR) [C5/3], the Ki (TAR RNA; [2]) is reported as 15.2 ± 3.79 µM.

For cyclo(KRRFR) [C5/2], the Ki (TAR RNA; [2]) was 12.7 ± 6.58 µM.
